# Reference: ChEMBL document CHEMBL1201862, “PubChem BioAssay data set” (2004)
# Active and inactive are the calls of the source.
# Assays:
# [1] = target: Histone-lysine N-methyltransferase NSD2 (Homo sapiens, UniProt O96028); assay type: biochemical
# [2] = target: T1, Sentrin-specific protease 8 (Homo sapiens, UniProt Q96LD8); assay type: functional
# T1 sequence (Q96LD8 whole entry): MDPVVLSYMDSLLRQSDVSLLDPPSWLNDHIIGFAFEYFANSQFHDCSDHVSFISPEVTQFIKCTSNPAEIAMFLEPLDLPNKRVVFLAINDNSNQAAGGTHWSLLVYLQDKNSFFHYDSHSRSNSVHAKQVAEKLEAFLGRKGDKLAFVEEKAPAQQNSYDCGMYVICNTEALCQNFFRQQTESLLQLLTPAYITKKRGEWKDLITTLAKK
# [3] = target: T2, Mitochondrial peptide methionine sulfoxide reductase (Bos taurus, UniProt P54149); assay: Absorbance-based biochemical high throughput dose response assay for activators of Methionine sulfoxide reductase A (MsrA).; assay type: functional
# T2 sequence (P54149 whole entry): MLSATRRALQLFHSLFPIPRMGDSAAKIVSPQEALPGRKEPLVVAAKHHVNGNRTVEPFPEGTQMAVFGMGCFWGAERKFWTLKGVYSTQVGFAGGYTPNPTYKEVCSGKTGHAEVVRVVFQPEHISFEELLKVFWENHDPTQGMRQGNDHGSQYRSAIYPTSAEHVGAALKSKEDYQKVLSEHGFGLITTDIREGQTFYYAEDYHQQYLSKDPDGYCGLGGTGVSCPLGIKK
# [4] = target: T2, Mitochondrial peptide methionine sulfoxide reductase; assay type: functional
# [5] = target: T1, Sentrin-specific protease 8; assay type: functional; remark: listed apart in the source
# [6] = target: Interleukin-8 (Homo sapiens, UniProt P10145); assay: Dose Response confirmation of uHTS small molecule hits for cystic fibrosis induced NFkb Inhibitors in a PAF-induced IL8 counterscreen.; assay type: functional; conditions: read-out: IC50_Mean
# Chain of Interleukin-8 (P10145 whole entry): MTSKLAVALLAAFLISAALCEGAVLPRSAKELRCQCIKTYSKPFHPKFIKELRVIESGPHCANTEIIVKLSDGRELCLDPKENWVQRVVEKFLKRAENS
# [7] = target: T3, Probable nicotinate-nucleotide adenylyltransferase (Staphylococcus aureus (strain N315), UniProt P65502); assay type: functional, Staphylococcus aureus subsp. aureus N315;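 as to IC50 Mean: confirmatory dose-response retesting of NadD inhibitor hits first found in an ultra-high-throughput screen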
# T3 sequence (P65502 whole entry): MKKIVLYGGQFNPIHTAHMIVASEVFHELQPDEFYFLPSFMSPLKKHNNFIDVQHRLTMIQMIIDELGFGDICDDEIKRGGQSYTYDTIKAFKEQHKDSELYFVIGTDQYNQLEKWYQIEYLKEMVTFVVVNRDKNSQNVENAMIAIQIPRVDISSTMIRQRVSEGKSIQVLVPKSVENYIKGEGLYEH
# [8] = target: T4, Beta Lactamase (Pseudomonas aeruginosa, UniProt Q932Y6); assay: VIM-2 CCF2 hydrolysis inhibition, assay artifact filter – biochemical, FRET readout, CCF2 substrate, artefact control for selective VIM-2 inhibitor project, dose response (AID 1926)
# T4 sequence (Q932Y6 whole entry): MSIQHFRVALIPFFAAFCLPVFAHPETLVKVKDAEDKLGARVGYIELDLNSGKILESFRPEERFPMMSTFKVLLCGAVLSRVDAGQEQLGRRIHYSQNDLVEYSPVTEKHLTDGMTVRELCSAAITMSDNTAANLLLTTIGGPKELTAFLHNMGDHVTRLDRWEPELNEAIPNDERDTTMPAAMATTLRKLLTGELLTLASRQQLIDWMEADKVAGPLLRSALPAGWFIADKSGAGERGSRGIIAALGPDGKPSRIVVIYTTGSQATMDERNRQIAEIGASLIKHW
# [9] = target: Beta-lactamase (Salmonella choleraesuis (strain SC-B67), UniProt Q5J463); assay: Epi-absorbance-based counterscreen for selective VIM-2 inhibitors: dose response biochemical high throughput screening assay to identify inhibitors of TEM-1 serine-beta-lactamase.
# Chain of Beta-lactamase (Salmonella choleraesuis (strain SC-B67), UniProt Q5J463) (Q5J463 whole entry): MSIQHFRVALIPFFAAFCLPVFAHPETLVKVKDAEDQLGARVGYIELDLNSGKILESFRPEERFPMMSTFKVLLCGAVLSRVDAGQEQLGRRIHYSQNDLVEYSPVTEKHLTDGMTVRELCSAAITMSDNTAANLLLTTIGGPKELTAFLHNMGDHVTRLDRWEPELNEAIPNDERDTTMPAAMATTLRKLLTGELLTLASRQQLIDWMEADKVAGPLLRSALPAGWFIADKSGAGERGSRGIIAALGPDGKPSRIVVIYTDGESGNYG
# [10] = target: T5, Beta-lactamase (Pseudomonas aeruginosa, UniProt Q79MP6); assay: inhibition of IMP-1 beta-lactamase activity – biochemical, epi-absorbance, selectivity assay for VIM-2 inhibitor project, dose response (AID 1920)
# T5 sequence (Q79MP6 whole entry): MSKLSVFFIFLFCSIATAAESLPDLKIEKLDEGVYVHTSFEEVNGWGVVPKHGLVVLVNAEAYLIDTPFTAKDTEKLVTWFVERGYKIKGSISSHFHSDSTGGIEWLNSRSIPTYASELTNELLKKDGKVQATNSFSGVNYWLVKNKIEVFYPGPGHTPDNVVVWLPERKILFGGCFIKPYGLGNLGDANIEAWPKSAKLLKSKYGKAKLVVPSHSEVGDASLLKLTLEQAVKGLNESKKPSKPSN
# [11] = target: T4, Beta Lactamase; assay: concentration-dependent VIM-2 enzyme inhibition – biochemical, epi-absorbance readout, selective inhibitors, dose response (AID 1919)
# [12] = target: T6, Leucine aminopeptidase (Plasmodium falciparum 3D7, UniProt Q8IL11); assay: P. falciparum M17LAP inhibitors, primary screen, biochemical, fluorogenic H-Leu-NHMec substrate, 1536-well (AID 1619); assay type: functional
# T6 sequence (Q8IL11 whole entry): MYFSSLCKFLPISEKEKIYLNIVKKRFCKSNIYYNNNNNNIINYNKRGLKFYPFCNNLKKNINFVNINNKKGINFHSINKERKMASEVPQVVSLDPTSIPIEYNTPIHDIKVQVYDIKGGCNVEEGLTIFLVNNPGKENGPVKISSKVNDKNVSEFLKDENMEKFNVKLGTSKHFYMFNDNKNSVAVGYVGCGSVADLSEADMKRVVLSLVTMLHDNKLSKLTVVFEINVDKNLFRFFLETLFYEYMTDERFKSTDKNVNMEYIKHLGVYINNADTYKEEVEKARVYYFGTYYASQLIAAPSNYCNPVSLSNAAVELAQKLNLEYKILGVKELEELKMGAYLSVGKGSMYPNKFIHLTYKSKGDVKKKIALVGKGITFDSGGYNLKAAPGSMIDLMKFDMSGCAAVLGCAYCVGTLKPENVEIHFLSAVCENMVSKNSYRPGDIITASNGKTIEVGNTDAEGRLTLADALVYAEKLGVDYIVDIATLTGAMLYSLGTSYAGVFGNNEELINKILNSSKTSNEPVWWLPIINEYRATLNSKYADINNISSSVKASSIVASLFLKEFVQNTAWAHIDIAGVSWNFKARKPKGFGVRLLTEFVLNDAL
# [13] = target: T3, Probable nicotinate-nucleotide adenylyltransferase; assay type: functional, Staphylococcus aureus subsp. aureus N315; conditions: read-out: IC50_Mean
# [14] = target: T5, Beta-lactamase; assay: […] counterscreen for selective VIM-2 inhibitors: dose response biochemical high throughput screening assay to identify inhibitors of IMP-1 metallo-beta-lactamase.
# [15] = target: T7, Small ubiquitin-related modifier 1 (Homo sapiens, UniProt P63165); assay: SUMO1 protein interaction blockers, potency – biochemical, fluorescence polarization, uHTS hits, dose response (AID 624382); assay type: functional; conditions: read-out: IC50_Mean
# T7 sequence (P63165 whole entry): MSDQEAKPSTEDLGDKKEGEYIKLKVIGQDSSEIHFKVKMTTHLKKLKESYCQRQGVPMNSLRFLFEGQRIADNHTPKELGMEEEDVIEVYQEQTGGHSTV
# [16] = target: T7, Small ubiquitin-related modifier 1; assay: SUMO1 protein-protein binding blockers, potency – biochemical, FRET, dose response (AID 624383); assay type: functional; conditions: read-out: IC50_Mean
# [17] = target: T8, Carboxy-terminal domain RNA polymerase II polypeptide A small phosphatase 1 (Homo sapiens, UniProt Q9GZU7); assay: CTDSP1 inhibitors, concentration-response, biochemical, absorbance readout, ultra-high-throughput screen actives (AID 540297); assay type: functional
# T8 sequence (Q9GZU7 whole entry): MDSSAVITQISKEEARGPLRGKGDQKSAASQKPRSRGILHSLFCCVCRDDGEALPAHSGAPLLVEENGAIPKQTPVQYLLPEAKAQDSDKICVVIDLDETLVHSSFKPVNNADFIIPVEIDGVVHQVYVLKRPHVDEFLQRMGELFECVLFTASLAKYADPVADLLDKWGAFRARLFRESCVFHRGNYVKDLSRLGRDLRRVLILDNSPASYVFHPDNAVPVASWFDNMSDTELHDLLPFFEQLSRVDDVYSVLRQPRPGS
# [18] = target: Melanocortin receptor 4 (Homo sapiens, UniProt P32245); assay: inhibitors of MC4R cAMP signaling – cell-based, TR-FRET, biased antagonists, dose response (AID 602298); assay type: functional;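 also: antagonist potency against agonist-stimulated cAMP production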
# Chain of Melanocortin receptor 4 (P32245 whole entry): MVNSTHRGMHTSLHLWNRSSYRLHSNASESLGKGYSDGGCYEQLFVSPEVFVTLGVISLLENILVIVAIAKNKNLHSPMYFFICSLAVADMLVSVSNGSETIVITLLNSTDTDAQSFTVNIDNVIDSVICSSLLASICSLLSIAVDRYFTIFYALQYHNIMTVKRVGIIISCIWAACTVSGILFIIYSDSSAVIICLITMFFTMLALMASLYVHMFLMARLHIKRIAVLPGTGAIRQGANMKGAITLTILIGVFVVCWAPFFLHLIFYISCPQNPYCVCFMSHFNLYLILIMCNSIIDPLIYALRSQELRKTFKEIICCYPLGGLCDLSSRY
# [19] = cAMP pathway inhibition in counterscreen cell line – TR-FRET cAMP detection, counter-screen for MC4R biased antagonist project, dose response (AID 602305); assay type: functional, cell-based;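 also: U2OS cells stimulated with forskolin near its EC80 as the cAMP inducer; potency is for inhibition of forskolin-stimulated cAMP signaling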
# [20] = target: Dual specificity protein kinase CLK1 (Homo sapiens, UniProt P49759); assay: inhibition of human CLK1 activity – biochemical, cherry-picked samples, selectivity assay for Dyrk1A inhibitor project, dose response (AID 588811)
# Chain of Dual specificity protein kinase CLK1 (P49759 whole entry): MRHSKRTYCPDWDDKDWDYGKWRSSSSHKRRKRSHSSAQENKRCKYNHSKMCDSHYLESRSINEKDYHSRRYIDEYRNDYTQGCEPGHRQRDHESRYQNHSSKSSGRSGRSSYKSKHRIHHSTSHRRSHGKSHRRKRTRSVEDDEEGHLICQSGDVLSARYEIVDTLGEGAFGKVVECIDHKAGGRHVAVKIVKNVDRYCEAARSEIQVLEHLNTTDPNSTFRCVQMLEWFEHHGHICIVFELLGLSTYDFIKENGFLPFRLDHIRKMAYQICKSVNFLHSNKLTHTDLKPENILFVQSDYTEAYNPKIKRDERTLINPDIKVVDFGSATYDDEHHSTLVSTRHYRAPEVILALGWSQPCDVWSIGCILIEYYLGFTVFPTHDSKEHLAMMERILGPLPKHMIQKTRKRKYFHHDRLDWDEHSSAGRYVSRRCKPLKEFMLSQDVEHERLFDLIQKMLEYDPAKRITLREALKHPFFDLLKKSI
# [21] = target: ATP-dependent molecular chaperone HSP82 (Candida albicans (strain WO-1) (Yeast), UniProt C4YTQ8); assay: steroid-induced GRE reporter decrease in yeast – S. cerevisiae, luminescence, Hsp90 inhibitor project, dose response (AID 2400); assay type: functional, cell-based;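 also: beta-galactosidase luminescence from glucocorticoid response element reporter as proxy for Hsp90 function; inhibitor potency where signal loss means Hsp90 inhibition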
# Chain of ATP-dependent molecular chaperone HSP82 (C4YTQ8 whole entry): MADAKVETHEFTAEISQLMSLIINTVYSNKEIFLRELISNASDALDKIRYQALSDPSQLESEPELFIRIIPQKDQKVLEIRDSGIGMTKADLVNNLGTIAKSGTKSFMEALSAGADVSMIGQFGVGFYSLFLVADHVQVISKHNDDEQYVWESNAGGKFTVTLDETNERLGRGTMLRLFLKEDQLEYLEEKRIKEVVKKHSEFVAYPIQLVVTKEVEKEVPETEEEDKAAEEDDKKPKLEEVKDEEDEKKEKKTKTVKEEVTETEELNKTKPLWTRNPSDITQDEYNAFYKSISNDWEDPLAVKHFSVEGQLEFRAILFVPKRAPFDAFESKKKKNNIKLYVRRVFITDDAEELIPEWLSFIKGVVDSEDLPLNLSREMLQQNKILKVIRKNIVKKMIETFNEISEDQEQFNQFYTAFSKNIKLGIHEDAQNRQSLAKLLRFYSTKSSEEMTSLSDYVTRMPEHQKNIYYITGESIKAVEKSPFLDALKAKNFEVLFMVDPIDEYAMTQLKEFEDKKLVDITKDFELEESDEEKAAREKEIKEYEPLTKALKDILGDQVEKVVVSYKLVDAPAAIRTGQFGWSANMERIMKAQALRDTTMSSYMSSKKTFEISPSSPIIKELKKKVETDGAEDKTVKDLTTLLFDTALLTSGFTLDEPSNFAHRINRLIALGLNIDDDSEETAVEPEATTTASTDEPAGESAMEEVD
# [22] = target: T9, Streptokinase A (Streptococcus pyogenes serotype M1, UniProt P10520); assay: viability-normalized secreted streptokinase activity reduction – plasminogen activation absorbance, OD405, dose response (AID 1914); assay type: functional, Streptococcus pyogenes M1 GAS;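 also: secreted streptokinase activity via plasminogen activation per viability signal from cell pellet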
# T9 sequence (P10520 whole entry): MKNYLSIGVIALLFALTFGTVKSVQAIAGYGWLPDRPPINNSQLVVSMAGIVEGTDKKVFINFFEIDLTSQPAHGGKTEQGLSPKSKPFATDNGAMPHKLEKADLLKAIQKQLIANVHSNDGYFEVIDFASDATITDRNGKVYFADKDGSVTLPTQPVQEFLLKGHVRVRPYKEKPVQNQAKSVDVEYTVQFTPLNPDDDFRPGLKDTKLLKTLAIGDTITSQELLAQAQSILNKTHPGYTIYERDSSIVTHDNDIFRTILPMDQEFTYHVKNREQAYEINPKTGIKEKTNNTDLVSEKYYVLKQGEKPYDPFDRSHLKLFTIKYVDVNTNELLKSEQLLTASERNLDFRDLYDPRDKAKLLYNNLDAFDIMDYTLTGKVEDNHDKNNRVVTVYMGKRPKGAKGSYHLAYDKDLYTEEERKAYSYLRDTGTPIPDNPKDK
# [23] = target: Serine/threonine-protein phosphatase (Candida dubliniensis (strain CD36 / CBS 7987 / NCPF 3949 / NRRLY-17841) (Yeast), UniProt B9W6M3); assay: blockers of CaCl2-induced CDRE-lacZ signaling – S. cerevisiae, luminescence, secondary, dose response (AID 2388); assay type: functional, cell-based;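 also: yeast reporter cells carrying a calcineurin-responsive lacZ construct stimulated with calcium chloride; luminescent beta-galactosidase reporter signal in whole cells rather than isolated phosphatase activity; potency for inhibition where a drop in reporter signal means calcineurin blockade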
# Chain of Serine/threonine-protein phosphatase (B9W6M3 whole entry): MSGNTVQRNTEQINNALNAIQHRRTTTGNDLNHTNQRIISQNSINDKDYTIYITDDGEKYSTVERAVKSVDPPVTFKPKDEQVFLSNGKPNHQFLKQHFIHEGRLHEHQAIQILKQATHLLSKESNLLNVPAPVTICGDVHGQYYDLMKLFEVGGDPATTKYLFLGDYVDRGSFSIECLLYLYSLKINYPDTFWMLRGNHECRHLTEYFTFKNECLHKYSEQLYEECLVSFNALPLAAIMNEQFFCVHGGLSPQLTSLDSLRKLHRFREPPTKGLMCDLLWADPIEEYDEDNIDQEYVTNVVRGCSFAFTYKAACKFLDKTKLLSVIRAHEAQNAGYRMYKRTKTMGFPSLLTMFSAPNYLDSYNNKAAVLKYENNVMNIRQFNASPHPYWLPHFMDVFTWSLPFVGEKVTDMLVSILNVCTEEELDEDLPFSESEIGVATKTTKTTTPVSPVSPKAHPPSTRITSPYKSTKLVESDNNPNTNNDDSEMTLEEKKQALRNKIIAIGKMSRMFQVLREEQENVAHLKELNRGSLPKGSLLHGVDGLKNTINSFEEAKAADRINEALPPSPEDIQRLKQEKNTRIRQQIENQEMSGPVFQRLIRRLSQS
# Chain of Histone-lysine N-methyltransferase NSD2 (O96028 whole entry): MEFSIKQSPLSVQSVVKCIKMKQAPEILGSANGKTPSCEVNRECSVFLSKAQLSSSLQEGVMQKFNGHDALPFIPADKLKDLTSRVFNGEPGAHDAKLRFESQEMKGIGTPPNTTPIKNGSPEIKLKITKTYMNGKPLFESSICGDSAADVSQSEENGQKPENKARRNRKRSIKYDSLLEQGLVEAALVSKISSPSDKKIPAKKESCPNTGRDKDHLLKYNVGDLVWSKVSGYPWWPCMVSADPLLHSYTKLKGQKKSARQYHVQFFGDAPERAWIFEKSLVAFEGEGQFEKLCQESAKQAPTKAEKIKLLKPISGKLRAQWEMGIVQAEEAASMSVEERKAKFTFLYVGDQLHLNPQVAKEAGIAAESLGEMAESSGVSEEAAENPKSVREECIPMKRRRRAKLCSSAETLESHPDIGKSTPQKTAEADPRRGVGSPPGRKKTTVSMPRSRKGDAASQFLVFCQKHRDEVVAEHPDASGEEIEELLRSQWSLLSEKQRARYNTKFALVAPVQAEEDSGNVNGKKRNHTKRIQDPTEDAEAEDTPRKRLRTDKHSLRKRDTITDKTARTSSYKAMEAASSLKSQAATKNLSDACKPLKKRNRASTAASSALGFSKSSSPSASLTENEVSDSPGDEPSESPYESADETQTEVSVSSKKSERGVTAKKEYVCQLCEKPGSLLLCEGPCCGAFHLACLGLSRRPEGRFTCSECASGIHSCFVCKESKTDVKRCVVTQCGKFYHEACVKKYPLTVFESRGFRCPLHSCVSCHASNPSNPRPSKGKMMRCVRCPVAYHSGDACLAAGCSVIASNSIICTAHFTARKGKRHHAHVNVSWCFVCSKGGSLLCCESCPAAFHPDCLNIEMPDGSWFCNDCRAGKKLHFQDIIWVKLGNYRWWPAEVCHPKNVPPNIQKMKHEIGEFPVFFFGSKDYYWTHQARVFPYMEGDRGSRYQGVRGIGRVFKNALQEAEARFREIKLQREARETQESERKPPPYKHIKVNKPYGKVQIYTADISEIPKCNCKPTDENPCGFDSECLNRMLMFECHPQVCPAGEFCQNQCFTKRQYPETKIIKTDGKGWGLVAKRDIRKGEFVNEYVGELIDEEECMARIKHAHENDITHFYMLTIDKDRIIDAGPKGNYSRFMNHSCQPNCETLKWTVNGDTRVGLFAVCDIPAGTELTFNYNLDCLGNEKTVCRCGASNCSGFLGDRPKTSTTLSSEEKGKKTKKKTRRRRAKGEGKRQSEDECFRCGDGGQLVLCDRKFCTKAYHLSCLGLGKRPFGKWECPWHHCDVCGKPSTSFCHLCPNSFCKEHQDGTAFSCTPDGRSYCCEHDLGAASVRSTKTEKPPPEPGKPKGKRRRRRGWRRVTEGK
smiles,measurement,setting,value
O=[N+]([O-])c1ccc(-[n+]2nc(-c3ccccc3)nn2-c2ccccc2)cc1,AC50,[1],0.654 µM (active)
same,IC50,[2],5.48 µM (active)
same,EC50,[3],> 104 µM (inactive)
same,IC50,[4],35.9 µM (inactive)
same,IC50,[5],23.7 µM (active)
c1ccc2c(-c3cncc4ccccc34)cncc2c1,IC50,[6],16 µM (inactive)
O=C(O)c1cccc(NC(=S)N/N=C/c2ccccc2OCc2ccc(Br)cc2)c1,IC50,[7],3.73 µM (active)
same,IC50,[8],0.885 µM (active)
same,IC50,[9],> 59.6 µM (inactive)
same,IC50,[10],> 59.6 µM (inactive)
same,IC50,[11],10 µM (inactive)
same,IC50,[12],13.3 µM (active)
same,IC50,[13],15.4 µM (active)
same,IC50,[14],> 59.6 µM (inactive)
CC(Cc1c[nH]c2ccccc12)C(=O)NCc1ccco1 (stereo not drawn),IC50,[15],> 66.6 µM (inactive)
same,IC50,[16],12.2 µM (active)
same,IC50,[17],19.4 µM (active)
COC(=O)CSc1nnc(-c2ccc(S(=O)(=O)N3CCCCC3)cc2)o1,IC50,[18],> 64.6 µM (inactive)
same,IC50,[19],> 64.6 µM (inactive)
c1cncc(-c2nc(NCc3ccco3)c3ccccc3n2)c1,AC50,[20],17.9 µM (active)
O=C(c1cc(-c2ccccc2)n[nH]1)N1CCc2c([nH]c3ccccc23)C1c1ccccn1 (stereo not drawn),EC50,[21],31.2 µM (active)
same,EC50,[22],26.3 µM (active)
same,EC50,[23],> 180 µM (inactive)
